Results on 18 molecules are retold here after patent publication US20250320213A1, “Nitrogen-Containing Heterocyclic Compounds” (Pfizer Inc., priority 2024, published 2025).

The structures appear in SMILES notation.

The test concerns the target T1, STAT6 (Homo sapiens, UniProt P42226).
T1 construct: stably transfected HaCaT keratinocyte cell line, which expresses NanoLuc luciferase reporter gene under the transcriptional control of the STAT6 responsive promoter; endogenous in cells; host or cells: HaCaT keratinocyte reporter cell line (stably transfected with a NanoLuc reporter)
T1 sequence (P42226 1-847): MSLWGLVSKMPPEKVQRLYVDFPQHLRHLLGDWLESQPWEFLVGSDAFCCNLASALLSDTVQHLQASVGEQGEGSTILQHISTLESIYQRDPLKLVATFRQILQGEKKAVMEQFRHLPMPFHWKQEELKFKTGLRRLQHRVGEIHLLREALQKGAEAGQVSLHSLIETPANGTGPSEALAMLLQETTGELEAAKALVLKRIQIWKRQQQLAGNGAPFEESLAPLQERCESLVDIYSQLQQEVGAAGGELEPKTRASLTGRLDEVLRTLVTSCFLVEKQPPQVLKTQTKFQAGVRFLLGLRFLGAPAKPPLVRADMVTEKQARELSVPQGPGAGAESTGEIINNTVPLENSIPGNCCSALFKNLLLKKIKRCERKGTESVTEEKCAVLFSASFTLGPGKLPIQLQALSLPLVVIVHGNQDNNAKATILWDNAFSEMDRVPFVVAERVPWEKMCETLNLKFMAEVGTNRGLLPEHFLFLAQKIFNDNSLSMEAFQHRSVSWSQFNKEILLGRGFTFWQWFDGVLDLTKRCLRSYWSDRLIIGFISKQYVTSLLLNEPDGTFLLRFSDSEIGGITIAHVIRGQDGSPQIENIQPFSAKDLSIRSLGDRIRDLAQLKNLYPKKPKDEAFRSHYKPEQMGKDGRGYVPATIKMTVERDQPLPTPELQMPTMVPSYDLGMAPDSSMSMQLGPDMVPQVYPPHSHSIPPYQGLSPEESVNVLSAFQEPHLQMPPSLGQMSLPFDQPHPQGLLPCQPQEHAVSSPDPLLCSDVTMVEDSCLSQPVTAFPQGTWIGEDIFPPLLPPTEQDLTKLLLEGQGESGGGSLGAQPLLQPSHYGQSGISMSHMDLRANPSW
The test is described as follows: STAT6 Reporter Luciferase Assay (IL-13 stimulated HaCaT keratinocyte NanoLuc reporter cells). The format is cell-based. To be noted: IL-13 stimulated HaCaT STAT6 NanoLuc reporter cells; read-out: Reporter EC50. In outline:
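Luminescence from a NanoLuc reporter driven by the STAT6-responsive IL-13Ra2 promoter in HaCaT keratinocytes serves as the read-out. Compounds are given 2 h before a 4 h stimulation with 0.12 nM IL-13.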
As for `Cc1cnc2c(c1)CN(C(=O)c1ccc(N3CCc4c(c(C(=O)NCc5ccc(NC(=O)N(C)C)cc5)nn4C(C)C)C3)nc1)CC2` [Example 410, N-(4-(3,3-dimethylureido)benzyl)-1-isopropyl-5-(5-(3-methyl-5,6,7,8-tetrahydro-1,6-naphthyridine-6-carbonyl)pyridin-2-yl)-4,5,6,7-tetrahydro-1H-pyrazolo[4,3-c]pyridine-3-carboxamide], the EC50 (in general, the midpoint of the concentration-response curve) turned out to be 15 nM. The same measure for `CC(C)n1nc(C(=O)NCc2ccc(NC(=O)N(C)C)cc2)c2c1CCN(c1ccc(C(=O)N3Cc4ccc(C#N)cc4C3)cn1)C2` [Example 411, 5-(5-(5-cyanoisoindoline-2-carbonyl)pyridin-2-yl)-N-(4-(3,3-dimethylureido)benzyl)-1-isopropyl-4,5,6,7-tetrahydro-1H-pyrazolo[4,3-c]pyridine-3-carboxamide]: 8 nM; for `CC(C)n1nc(C(=O)NCc2ccc(NC(=O)N(C)C)cc2)c2c1CCN(c1ccc(C(=O)N3CCc4cnc(O)cc4C3)cn1)C2` [Example 412, N-(4-(3,3-dimethylureido)benzyl)-5-(5-(7-hydroxy-1,2,3,4-tetrahydro-2,6-naphthyridine-2-carbonyl)pyridin-2-yl)-1-isopropyl-4,5,6,7-tetrahydro-1H-pyrazolo[4,3-c]pyridine-3-carboxamide]: 396 nM; for `Cc1nc2n(n1)CCN(C(=O)c1ccc(N3CCc4c(c(C(=O)NCc5ccc(NC(=O)N(C)C)cc5)nn4C(C)C)C3)nc1)C2` [Example 413, N-(4-(3,3-dimethylureido)benzyl)-1-isopropyl-5-(5-(2-methyl-5,6,7,8-tetrahydro-[1,2,4]triazolo[1,5-a]pyrazine-7-carbonyl)pyridin-2-yl)-4,5,6,7-tetrahydro-1H-pyrazolo[4,3-c]pyridine-3-carboxamide]: 82 nM. The same measure for `Cc1nc2n(c1C)CCN(C(=O)c1ccc(N3CCc4c(c(C(=O)NCc5ccc(NC(=O)N(C)C)cc5)nn4C(C)C)C3)nc1)C2` [Example 414, 5-(5-(2,3-dimethyl-5,6,7,8-tetrahydroimidazo[1,2-a]pyrazine-7-carbonyl)pyridin-2-yl)-N-(4-(3,3-dimethylureido)benzyl)-1-isopropyl-4,5,6,7-tetrahydro-1H-pyrazolo[4,3-c]pyridine-3-carboxamide]: 66 nM.

As for `CC(C)n1nc(C(=O)NCc2ccc(NC(=O)N(C)C)cc2)c2c1CCN(c1ccc(C(=O)N3Cc4cccc(C#N)c4C3)cn1)C2` [Example 415, 5-(5-(4-cyanoisoindoline-2-carbonyl)pyridin-2-yl)-N-(4-(3,3-dimethylureido)benzyl)-1-isopropyl-4,5,6,7-tetrahydro-1H-pyrazolo[4,3-c]pyridine-3-carboxamide], the EC50 was 3 nM.

Take `CC(C)n1nc(C(=O)NCc2ccc(NC(=O)N(C)C)cc2)c2c1CCN(c1ccc(C(=O)N3CCc4c(cnn4C)C3)cn1)C2` [Example 416, N-(4-(3,3-dimethylureido)benzyl)-1-isopropyl-5-(5-(1-methyl-4,5,6,7-tetrahydro-1H-pyrazolo[4,3-c]pyridine-5-carbonyl)pyridin-2-yl)-4,5,6,7-tetrahydro-1H-pyrazolo[4,3-c]pyridine-3-carboxamide]: the EC50 is 29 nM.

For the molecule `CC(C)n1nc(C(=O)NCc2ccc(NC(=O)N(C)C)cc2)c2c1CCN(c1ccc(C(=O)N3CCc4cccnc4C3)cn1)C2` [Example 417, N-(4-(3,3-dimethylureido)benzyl)-1-isopropyl-5-(5-(5,6,7,8-tetrahydro-1,7-naphthyridine-7-carbonyl)pyridin-2-yl)-4,5,6,7-tetrahydro-1H-pyrazolo[4,3-c]pyridine-3-carboxamide], the EC50 was determined as 17 nM. Consider `Cc1nn(C)c2c1CCN(C(=O)c1ccc(N3CCc4c(c(C(=O)NCc5ccc(NC(=O)N(C)C)cc5)nn4C(C)C)C3)nc1)C2` [Example 418, 5-(5-(1,3-dimethyl-4,5,6,7-tetrahydro-1H-pyrazolo[3,4-c]pyridine-6-carbonyl)pyridin-2-yl)-N-(4-(3,3-dimethylureido)benzyl)-1-isopropyl-4,5,6,7-tetrahydro-1H-pyrazolo[4,3-c]pyridine-3-carboxamide], for which the EC50 stood at 61 nM. Then `Cc1cnn2c1CN(C(=O)c1ccc(N3CCc4c(c(C(=O)NCc5ccc(NC(=O)N(C)C)cc5)nn4C(C)C)C3)nc1)CC2` [Example 419, N-(4-(3,3-dimethylureido)benzyl)-1-isopropyl-5-(5-(3-methyl-4,5,6,7-tetrahydropyrazolo[1,5-a]pyrazine-5-carbonyl)pyridin-2-yl)-4,5,6,7-tetrahydro-1H-pyrazolo[4,3-c]pyridine-3-carboxamide], with 44 nM; and `CC(C)n1nc(C(=O)NCc2ccc(NC(=O)N(C)C)cc2)c2c1CCN(c1ccc(C(=O)N3CCc4c(ncn4C)C3)cn1)C2` [Example 421, N-(4-(3,3-dimethylureido)benzyl)-1-isopropyl-5-(5-(1-methyl-4,5,6,7-tetrahydro-1H-imidazo[4,5-c]pyridine-5-carbonyl)pyridin-2-yl)-4,5,6,7-tetrahydro-1H-pyrazolo[4,3-c]pyridine-3-carboxamide], with 18 nM. Then `CC(C)n1nc(C(=O)NCc2ccc(NC(=O)N(C)C)cc2)c2c1CCN(c1ccc(C(=O)N3CCc4ccc(C#N)cc4C3)cn1)C2` [Example 422, 5-(5-(7-cyano-1,2,3,4-tetrahydroisoquinoline-2-carbonyl)pyridin-2-yl)-N-(4-(3,3-dimethylureido)benzyl)-1-isopropyl-4,5,6,7-tetrahydro-1H-pyrazolo[4,3-c]pyridine-3-carboxamide], with 19 nM; and `Cc1nc2c(o1)CCN(C(=O)c1ccc(N3CCc4c(c(C(=O)NCc5ccc(NC(=O)N(C)C)cc5)nn4C(C)C)C3)nc1)C2` [Example 423, N-(4-(3,3-dimethylureido)benzyl)-1-isopropyl-5-(5-(2-methyl-4,5,6,7-tetrahydrooxazolo[4,5-c]pyridine-5-carbonyl)pyridin-2-yl)-4,5,6,7-tetrahydro-1H-pyrazolo[4,3-c]pyridine-3-carboxamide], with 29 nM; and `CC(C)n1nc(C(=O)NCc2ccc(NC(=O)N(C)C)cc2)c2c1CCN(c1ccc(C(=O)N3Cc4ccnn4C(C)C3)cn1)C2` (stereo not drawn) [Example 424, N-(4-(3,3-dimethylureido)benzyl)-1-isopropyl-5-(5-(7-methyl-4,5,6,7-tetrahydropyrazolo[1,5-a]pyrazine-5-carbonyl)pyridin-2-yl)-4,5,6,7-tetrahydro-1H-pyrazolo[4,3-c]pyridine-3-carboxamide], with 46 nM. On to `CC(C)n1nc(C(=O)NCc2ccc(NC(=O)N(C)C)cc2)c2c1CCN(c1ccc(C(=O)N3CCn4nccc4C3)cn1)C2` [Example 425, N-(4-(3,3-dimethylureido)benzyl)-1-isopropyl-5-(5-(4,5,6,7-tetrahydropyrazolo[1,5-a]pyrazine-5-carbonyl)pyridin-2-yl)-4,5,6,7-tetrahydro-1H-pyrazolo[4,3-c]pyridine-3-carboxamide], for which the EC50 worked out at 34 nM.

With `CC(C)n1nc(C(=O)NCc2ccc(NC(=O)N(C)C)cc2)c2c1CCN(c1ccc(C(=O)N3Cc4ccccc4[C@H]3C)cn1)C2` [Example 426, (R)-N-(4-(3,3-dimethylureido)benzyl)-1-isopropyl-5-(5-(1-methylisoindoline-2-carbonyl)pyridin-2-yl)-4,5,6,7-tetrahydro-1H-pyrazolo[4,3-c]pyridine-3-carboxamide], the EC50 came to 13 nM.

As to `CC(C)n1nc(C(=O)NCc2ccc(NC(=O)N(C)C)cc2)c2c1CCN(c1ccc(C(=O)N3CCn4nncc4C3)cn1)C2` [Example 427, N-(4-(3,3-dimethylureido)benzyl)-1-isopropyl-5-(5-(4,5,6,7-tetrahydro-[1,2,3]triazolo[1,5-a]pyrazine-5-carbonyl)pyridin-2-yl)-4,5,6,7-tetrahydro-1H-pyrazolo[4,3-c]pyridine-3-carboxamide], the EC50 is 282 nM. The same measure for `CC(C)n1nc(C(=O)NCc2ccc(NC(=O)N(C)C)cc2)c2c1CCN(c1ccc(C(=O)N3CCc4oncc4C3)cn1)C2` [Example 432, N-(4-(3,3-dimethylureido)benzyl)-1-isopropyl-5-(5-(4,5,6,7-tetrahydroisoxazolo[4,5-c]pyridine-5-carbonyl)pyridin-2-yl)-4,5,6,7-tetrahydro-1H-pyrazolo[4,3-c]pyridine-3-carboxamide]: 186 nM.
